The data set in a line: Human HepG2 cell viability assay in 384 well format. The data set is classed as toxicity, cell-based. Set-up: dose 125 nL, time 70.5 hour; concentration not given beside the values. Particulars: HepG2 cells, read-out: Inhibition.

Turning to `Fc1cnc(N2CCO[C@H]3CN(CC4CCC4)C[C@H]32)nc1`, the cytotoxicity at 70.5 h was -0.999%.

With `CC(=O)N1CCn2c(COCc3csc(C)n3)cnc2C1C` (stereo unspecified), the cytotoxicity at 70.5 h is -20.1%.

As to `Cc1noc(C)c1CN1CCOC2(CCCN(c3nccs3)C2)C1` (stereo unspecified), the cytotoxicity at 70.5 h was 29.8%.

Regarding `Cc1nc(N)cc(C2CCN2CCC(N)=O)n1` (stereo unspecified), the cytotoxicity at 70.5 h is -3.73%.

Regarding `CCCn1nccc1-c1nccnc1CC1CCN(C(C)=O)CC1`, the cytotoxicity at 70.5 h was -2.55%.

In the case of `CC(=O)N1CCC(Cc2nccnc2-c2ccnn2C)CC1`, the cytotoxicity at 70.5 h was -2.74%.

Regarding `CC(C)=CCCC1(C)C=Cc2c(cc(C)n(CCC(=O)O)c2=O)O1` (stereo unspecified), the cytotoxicity at 70.5 h was determined as 4.03%.

In the case of `COCC(=O)N1CCCCC1c1nc(C)c2c(n1)N(C1CC1)C(=O)CC2` (stereo unspecified), the cytotoxicity at 70.5 h is -3.68%.

In the case of `O=C(CO)N1CCC(CCc2ccnc(Nc3cnccn3)c2)CC1`, the cytotoxicity at 70.5 h is -2.09%.

For `CN1CCC(Cc2cc(N(C)C)ncn2)C1` (stereo unspecified), the cytotoxicity at 70.5 h was found to be 5.25%.

Regarding `CN1CCC(CCc2ccnc(Nc3cnccn3)c2)CC1`, the cytotoxicity at 70.5 h was -4.49%.

Regarding `Cn1cc(C(=O)N2CCC(c3cc(CCO)n(C)n3)C2)cn1` (stereo unspecified), the cytotoxicity at 70.5 h is -4.36%.

Take `O=C(O)[C@@H]1OCC(=O)N(Cc2cccc(Cl)c2)[C@@H]1c1ccccc1`: the cytotoxicity at 70.5 h worked out at 5.58%.

In the case of `Cc1nccc(C2CN(S(=O)(=O)N(C)C)C2)n1`, the cytotoxicity at 70.5 h is -1.63%.

As to `CC(=O)NC1Cc2ccc(S(=O)(=O)NCCNc3ccccn3)cc2C1` (stereo unspecified), the cytotoxicity at 70.5 h is -4.42%.

Consider `CC(=O)Nc1nc(SCc2ccc3c(c2)OCO3)ns1`, for which the cytotoxicity at 70.5 h was -6.56%.

Take `Cc1ccnn1CCC(=O)N1CCCC[C@]2(C)NC(=O)CCC[C@H]12`: the cytotoxicity at 70.5 h was -7.45%.

For `CC(C)(NC(=O)Cc1ccccc1F)C(=O)O`, the cytotoxicity at 70.5 h was -4.89%.

For `CNc1nccc(C2CCCCN2Cc2cnn3cccnc23)n1` (stereo unspecified), the cytotoxicity at 70.5 h was -9.3%.

`O=C(O)c1ccccc1-c1ccc(CN2CCC(CO)C2)cn1` (stereo unspecified): the cytotoxicity at 70.5 h was determined as 15.8%.

For `CN(C)S(=O)(=O)N1CCC(c2c(C(N)=O)sc3ccccc23)C1` (stereo unspecified), the cytotoxicity at 70.5 h is -3.67%.

For the compound `Cc1nc(C2CCN2c2ncccn2)cc(N(C)C)n1` (stereo unspecified), the cytotoxicity at 70.5 h is -8.86%.

Take `O=C(CC1CCN(c2cccnn2)CC1)NCCO`: the cytotoxicity at 70.5 h is -6.47%.

In the case of `O=C(O)COc1ccc(CN2CCCC(Cc3cccnc3)C2)cc1` (stereo unspecified), the cytotoxicity at 70.5 h is -9.55%.

Regarding `CC(C)C[C@H](N)COc1cccc(F)c1Oc1ccccc1`, the cytotoxicity at 70.5 h turned out to be 19.1%.

Turning to `Cc1cnc(CCNC(=O)C2CCN(S(=O)(=O)c3ccc(F)cc3)C2)s1` (stereo unspecified), the cytotoxicity at 70.5 h turned out to be 17.8%.

With `CC(=O)N1CCC(CCc2ccnc(NC(=O)c3ccccn3)c2)CC1`, the cytotoxicity at 70.5 h amounted to 12%.

For `O=C(O)c1ccccc1-c1cnc(CNC(=O)C2CCOCC2)nc1`, the cytotoxicity at 70.5 h came out at 14%.

On to `Cc1noc(C)c1CC(=O)N1CCCC(Cc2ccccn2)C1` (stereo unspecified), for which the cytotoxicity at 70.5 h is -7.69%.

As to `O=C(O)c1ccc(=O)n(CC(c2ccc(Cl)cc2)N2CCCCCC2)c1` (stereo unspecified), the cytotoxicity at 70.5 h was -8.13%.

With `COCC(=O)N1C[C@@H](c2cccc(F)c2)[C@H]2[C@H]1CCCCCN2C(C)=O`, the cytotoxicity at 70.5 h was found to be 7.2%.

In the case of `Cc1ccnc(C2CN(c3ncccn3)C2)n1`, the cytotoxicity at 70.5 h was -12.1%.

Consider `CC(=O)N1CCCCC[C@@H]2[C@@H]1[C@H](c1cccc(F)c1)CN2CCC(N)=O`, for which the cytotoxicity at 70.5 h is -9.36%.

Consider `CCC(=O)N1CCCC(C(=O)c2cnn(-c3ccc(F)cc3)c2N)C1` (stereo unspecified), for which the cytotoxicity at 70.5 h is -0.996%.

As to `CC(=O)N1CCC1c1cc(N2CC(O)C2)nc(C)n1` (stereo unspecified), the cytotoxicity at 70.5 h is -11.3%.

Consider `CNC(=O)C1(c2cnccn2)CCCN1C(=O)Cc1ccsc1` (stereo unspecified), for which the cytotoxicity at 70.5 h was -6.75%.

With `CC(=O)N1CCC(C(=O)c2cnn(-c3ccccc3)c2N)C1` (stereo unspecified), the cytotoxicity at 70.5 h was -7.91%.

Regarding `NCCCC(=O)NCC1(O)CCN(c2ccnc3cccnc23)C1` (stereo unspecified), the cytotoxicity at 70.5 h is -7.06%.

Turning to `O=C1CN(C(=O)C2CN(c3cccc(Cl)c3)CCO2)CCN1` (stereo unspecified), the cytotoxicity at 70.5 h is -7.93%.

Take `O=C1CN(C(=O)C2CN(c3ccccc3)CCO2)CCN1` (stereo unspecified): the cytotoxicity at 70.5 h was -5.72%.

For the compound `CO[C@H]1C[C@@H]2CN(C(=O)c3cc4ccc(F)cc4[nH]3)C[C@@H]2C1`, the cytotoxicity at 70.5 h was -6.74%.

Turning to `Fc1cccc(Cc2cncc(C3CCCN3C3CCOCC3)n2)c1` (stereo unspecified), the cytotoxicity at 70.5 h was -5.65%.

For the compound `CCn1c(C)nc2cc(NC(=O)CC3CCCCO3)ccc21` (stereo unspecified), the cytotoxicity at 70.5 h was -7.28%.

As to `Cc1nc(C2CCN(S(C)(=O)=O)CC2)nc2c1CCC(=O)N2CC(C)C`, the cytotoxicity at 70.5 h was -1.36%.

Regarding `CC(=O)N1CCC1c1cc(N2CCNC(=O)C2)nc(C)n1` (stereo unspecified), the cytotoxicity at 70.5 h was -5.23%.

For `O=C1CO[C@H]2CCN(C(=O)c3ccc4c(c3)CCCC4)CC[C@@H]2N1`, the cytotoxicity at 70.5 h is -8.53%.

Turning to `CCC(=O)N1CCC(c2nc(C)ncc2-c2ccncc2)CC1`, the cytotoxicity at 70.5 h was -7.07%.

In the case of `CCS(=O)(=O)N1CCC(c2nc(C)c(C)c(N3CCCC3)n2)CC1`, the cytotoxicity at 70.5 h was determined as 2.09%.

On to `CCN(Cc1ccccc1O)CC1(C)Cc2c(N)nc(N)nc2O1` (stereo unspecified), for which the cytotoxicity at 70.5 h is -3.26%.

Turning to `CCN(Cc1ccncc1)CC1(C)Cc2c(N)nc(N)nc2O1` (stereo unspecified), the cytotoxicity at 70.5 h was -2.81%.

As for `O=C(O)c1ccc(=O)n(CC(c2ccc(Cl)cc2)N2CCOCC2)c1` (stereo unspecified), the cytotoxicity at 70.5 h was -6.42%.

As for `CCN(Cc1cscn1)CC1(C)Cc2c(N)nc(N)nc2O1` (stereo unspecified), the cytotoxicity at 70.5 h is 6.12%.

For `CCN(CCCc1ccccc1)CC1(C)Cc2c(N)nc(N)nc2O1` (stereo unspecified), the cytotoxicity at 70.5 h was 12.9%.

For `CNC(=O)c1cc(C)nc(C2(C)CCCN2c2cc(C)ncn2)n1` (stereo unspecified), the cytotoxicity at 70.5 h was -6.05%.

Consider `CC(C)CC(=O)N1CCCC1c1cc(CO)[nH]n1` (stereo unspecified), for which the cytotoxicity at 70.5 h was -4.42%.

Take `OCC(CO)N1CCCC(Cc2cnc(Nc3ccccn3)cn2)C1` (stereo unspecified): the cytotoxicity at 70.5 h was -3.34%.

As to `CCC(CC)C(=O)N1CCCc2c(cnn2C)C1`, the cytotoxicity at 70.5 h was -1.89%.

Consider `O=C1NC2(CCN(CC(=O)N3CCOCC3)CC2)Nc2ccccc21`, for which the cytotoxicity at 70.5 h is -2.3%.

In the case of `CC(C)c1cc(C(F)(F)F)n2nc(C3CCN(S(C)(=O)=O)C3)cc2n1` (stereo unspecified), the cytotoxicity at 70.5 h was -1.05%.

As for `O=C1NC2(CCCN(C(=O)CCn3cccn3)C2)Oc2ccccc21` (stereo unspecified), the cytotoxicity at 70.5 h turned out to be 1.47%.

Turning to `COc1ccccc1N1CCC(NCc2c(C)noc2C)C1` (stereo unspecified), the cytotoxicity at 70.5 h was determined as 30%.

For the compound `CCc1ccccc1OCC(=O)Nc1ccnc(OCCN(C)C)c1`, the cytotoxicity at 70.5 h was determined as 3.03%.

Regarding `NC(=O)CN(Cc1cccc(Oc2ccccc2)c1)C(=O)C1CC1`, the cytotoxicity at 70.5 h is -4.97%.

For `O=S(=O)(Nc1ccc(N2CCOCC2)cn1)c1cccc(F)c1`, the cytotoxicity at 70.5 h is -3.99%.

As for `Cc1ccc(S(=O)(=O)Nc2ccc(N3CCOCC3)cn2)cc1`, the cytotoxicity at 70.5 h is -3.69%.

Consider `COc1ccc(C(CN2CCN(C)CC2)Nc2ncccn2)cc1` (stereo unspecified), for which the cytotoxicity at 70.5 h was determined as 0.96%.

As to `COc1cc(C)ccc1OCC(=O)Nc1ccnc(OCCN(C)C)c1`, the cytotoxicity at 70.5 h was determined as 39.3%.

For `COc1ccnc(N(C)Cc2c(C)noc2C)n1`, the cytotoxicity at 70.5 h was -3.59%.

For the compound `CC(=O)N1CCCN(C(=O)NC(C)c2ccc(C)o2)CC1` (stereo unspecified), the cytotoxicity at 70.5 h came out at 1.15%.

On to `CC(C(=O)NCc1cccs1)N1CCN(Cc2nccn2C)CC1` (stereo unspecified), for which the cytotoxicity at 70.5 h is 13.2%.

For the compound `COc1ccc(SC(C)C(=O)N2CCC(C(=O)N3CCCC3)CC2)cc1` (stereo unspecified), the cytotoxicity at 70.5 h is -5.49%.

As for `COc1ccc(SC(C)C(=O)N2CCC(O)CC2)cc1` (stereo unspecified), the cytotoxicity at 70.5 h was -4.3%.

On to `N#Cc1ccccc1OCCN1CCC(C(=O)N2CCOCC2)CC1`, for which the cytotoxicity at 70.5 h is -9.69%.

For the compound `Cc1cc(C2CCCN2C(=O)c2ccc(OCC(N)=O)cc2)no1` (stereo unspecified), the cytotoxicity at 70.5 h was -11.5%.

For the compound `O=C(CCn1cncn1)NC1CCS(=O)(=O)C1` (stereo unspecified), the cytotoxicity at 70.5 h is -11%.

As to `Cc1ccc(OCCCNC(=O)C(C)Sc2nncn2C)cc1` (stereo unspecified), the cytotoxicity at 70.5 h was -12.1%.

As for `CC(C)c1nc2n(n1)CC(Nc1ncnc3ccccc13)CC2` (stereo unspecified), the cytotoxicity at 70.5 h is -13%.

For the compound `CN(C)S(=O)(=O)NC(=O)CC(c1ccccc1)C(F)(F)F` (stereo unspecified), the cytotoxicity at 70.5 h was -2.07%.

Regarding `COCC(C)(C)NC(=O)CC(c1ccccc1)C(F)(F)F` (stereo unspecified), the cytotoxicity at 70.5 h is -15.6%.

On to `Cc1nc2n(n1)CC(Nc1ncnc3c1CCC3)CC2` (stereo unspecified), for which the cytotoxicity at 70.5 h was -10.2%.

For the compound `O=C(C[S+]([O-])Cc1csc(C2CCCC2)n1)Nc1ccccc1` (stereo unspecified), the cytotoxicity at 70.5 h is -17.5%.

For `c1nc2c(c(NC3CCc4ncnn4C3)n1)CCC2` (stereo unspecified), the cytotoxicity at 70.5 h is -8.75%.

`N#Cc1cccc(OCCN2CCC(C(=O)N3CCOCC3)CC2)c1`: the cytotoxicity at 70.5 h was -11.2%.

For `CCC(C)(C)NC(=O)C[S+]([O-])Cc1csc(C2CCCC2)n1` (stereo unspecified), the cytotoxicity at 70.5 h turned out to be 11%.

For `CCN(CC)c1ncc(Cl)c(C(=O)NC2CCC(O)CC2)n1` (stereo unspecified), the cytotoxicity at 70.5 h is -0.431%.

Turning to `O=C(CCn1cncn1)NCC1CCCC1`, the cytotoxicity at 70.5 h was -6.57%.

For `COCCN(Cc1ccccn1)C(=O)CC1OCCc2sccc21` (stereo unspecified), the cytotoxicity at 70.5 h was -9.62%.

As for `CCCc1nn(Cc2csc(C(C)C)n2)c(=O)o1`, the cytotoxicity at 70.5 h is -7.07%.

Turning to `N#Cc1ccccc1OCCN1CCN(C(=O)C2CCCC2)CC1`, the cytotoxicity at 70.5 h turned out to be 7.87%.

For the compound `COc1ccc2c(c1)CC(NCc1cccc(NC(C)=O)c1)CC2` (stereo unspecified), the cytotoxicity at 70.5 h was -5.85%.

For `Cc1cnc(N2CCC(OCCN3CCCCC3)C2)nc1C` (stereo unspecified), the cytotoxicity at 70.5 h was -4.38%.

For `COCCN(Cc1ccccn1)C(=O)CC1OCCc2ccccc21` (stereo unspecified), the cytotoxicity at 70.5 h is -6.98%.

On to `NC(=O)C1CN(c2ccc(F)cc2)CCN1` (stereo unspecified), for which the cytotoxicity at 70.5 h was -2.98%.

With `Cc1nc(C2CCNC2)nc2c1CCC(=O)N2CC(C)C` (stereo unspecified), the cytotoxicity at 70.5 h is -3.62%.

With `CCOc1cc2c(cc1CNC(Cc1cccs1)c1nccs1)OCO2` (stereo unspecified), the cytotoxicity at 70.5 h was 1.33%.

`CC(C)(CN)NS(=O)(=O)c1c(F)cccc1F`: the cytotoxicity at 70.5 h was 2.67%.

`Cc1c(F)cccc1S(=O)(=O)NCCN`: the cytotoxicity at 70.5 h was -0.256%.

On to `COc1ccc(CN)c(OC(F)F)c1`, for which the cytotoxicity at 70.5 h is -10.1%.

With `NCc1ccc(OC(F)F)cc1OC(F)F`, the cytotoxicity at 70.5 h is -15.9%.

Turning to `c1cncc(CN2CCC(c3ccc4c(c3)OCO4)CC2)c1`, the cytotoxicity at 70.5 h came to 19.4%.

Regarding `O[C@H]1CCN(Cc2ccoc2)[C@H]1Cc1cccnc1`, the cytotoxicity at 70.5 h stood at 30.5%.

The values above are taken from ChEMBL document CHEMBL3507680, “University of Dundee, Gates Library screen for HepG2 cell viability”.
